Activity calls are given as the source filed them.
Experiments:
[1] = cytotoxicity in HEK-293T cells, dose response, cytotoxicity control for BCR NF-kB inhibitor project, luminescence, B-cell screen hits (AID 489021); format: functional, cell-based;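 also: HEK-293T cells carrying an NF-kB luciferase reporter; cells exposed to compound for about 14 hours before viability readout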
[2] = target: Voltage-gated inwardly rectifying potassium channel KCNH2 (Homo sapiens, UniProt Q12809); assay: hERG protection from proarrhythmic block, potency, dose response, cell-based, thallium flux (AID 2121); format: ADME
Fatty acid synthase [3] = target: T1, Fatty acid synthase (Homo sapiens, UniProt P49327); assay: FAS thioesterase domain inhibitors, dose response, biochemical, kinetic fluorescence intensity (AID 624326); format: functional;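 also: rate of fluorescence rise from hydrolysis of a fluorogenic O-methyl fluorescein ester substrate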
[4] = target: T2, Hepatocyte nuclear factor 4-alpha (Homo sapiens, UniProt P41235); format: functional, cell-based;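 also: biochemical luminescence-based dose-response counterscreen measuring inhibition of HNF4 dimerization, run alongside a screen for blockers of ABHD5–perilipin-5 interaction; split luciferase complementation of HNF4 fusion proteins in cell lysate measuring dimerization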
T2 sequence (P41235 whole entry): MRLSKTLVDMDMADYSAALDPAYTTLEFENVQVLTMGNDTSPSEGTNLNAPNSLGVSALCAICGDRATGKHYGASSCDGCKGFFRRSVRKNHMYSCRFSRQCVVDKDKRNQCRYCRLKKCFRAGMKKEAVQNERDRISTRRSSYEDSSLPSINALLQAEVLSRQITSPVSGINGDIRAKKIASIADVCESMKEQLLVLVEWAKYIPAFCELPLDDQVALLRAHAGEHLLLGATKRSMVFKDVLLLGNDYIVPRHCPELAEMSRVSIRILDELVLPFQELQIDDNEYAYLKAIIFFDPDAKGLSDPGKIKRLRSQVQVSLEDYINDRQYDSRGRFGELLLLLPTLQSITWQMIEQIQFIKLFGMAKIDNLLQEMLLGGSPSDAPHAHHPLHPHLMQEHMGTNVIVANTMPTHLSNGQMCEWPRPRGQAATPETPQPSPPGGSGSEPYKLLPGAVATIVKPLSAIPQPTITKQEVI

Mu-type opioid receptor = Mu-type opioid receptor (Homo sapiens, UniProt P35372); assay: (§1) Counterscreen for agonists of heterodimerization of the mu 1 (OPRM1) and delta 1 (OPRD1) opioid receptors: Luminescence-based cell-based high throughput dose response assay to identify agonists of OPRM1 homodimerization.; format: functional
Fatty acid synthase [5] = target: T1, Fatty acid synthase; assay: FAS thioesterase domain inhibitors, dose response, biochemical, endpoint fluorescence intensity, uHTS hits (AID 624327); format: functional;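 also: fluorescence from hydrolysis of an O-methyl fluorescein acyl ester substrate by the enzyme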
[6] = target: 5-hydroxytryptamine receptor 5A (Homo sapiens, UniProt P47898); assay: Counterscreen for agonists of OPRM1-OPRD1 heterodimerization: luminescence-based cell-based high throughput dose response assay to identify agonists of 5-hydroxytryptamine (serotonin) 5A receptor (HTR5A). [Related pubchem assays (depositor defined):AID504326, AID504355, AID504692, AID504904, AID504905]; format: functional
[7] = target: Delta-type opioid receptor (Homo sapiens, UniProt P41143); assay: as §1, with “of OPRD1” for “of OPRM1”, “homodimerization. [Related pubchem assays (depositor defined):AID504326, AID504355, AID504692, AID504904, AID504905]” for “homodimerization.”; format: functional
Paired box protein Pax-8 = Paired box protein Pax-8 (Homo sapiens, UniProt Q06710); assay: inhibitors of PAX8-driven TPO luciferase reporter, dose response, RMG-I cells, cherry-pick (AID 687027); format: functional, cell-based;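 also: luciferase reporter driven by Pax8 target thyroperoxidase promoter measured by SteadyGlo luminescence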
[8] = target: Photoreceptor-specific nuclear receptor (Homo sapiens, UniProt Q9Y5X4); format: functional, cell-based;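 also: CHO-S cells with Gal4-NCOR and VP16-NR2E3 two-hybrid luciferase reporter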
fMet-Leu-Phe receptor = target: T3, fMet-Leu-Phe receptor (Homo sapiens, UniProt P21462); assay: FPR ligands, dose response (AID 519); format: functional
T3 sequence (P21462 whole entry): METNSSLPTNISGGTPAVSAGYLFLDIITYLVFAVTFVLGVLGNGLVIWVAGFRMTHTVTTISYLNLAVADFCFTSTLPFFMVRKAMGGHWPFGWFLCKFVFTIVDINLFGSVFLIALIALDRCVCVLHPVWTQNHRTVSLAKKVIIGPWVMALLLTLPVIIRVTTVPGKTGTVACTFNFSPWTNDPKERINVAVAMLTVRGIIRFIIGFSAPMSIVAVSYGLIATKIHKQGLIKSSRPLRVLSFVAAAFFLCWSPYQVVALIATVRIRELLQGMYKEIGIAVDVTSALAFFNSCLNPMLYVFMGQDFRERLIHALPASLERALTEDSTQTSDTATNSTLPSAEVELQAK

[9] = target: E3 ubiquitin-protein ligase Mdm2 (Homo sapiens, UniProt Q00987); assay: enhancers of MDM2-luciferase reporter signal, concentration-effect titration, project on inhibitors of MDM2 ubiquitin ligase, cellular assay, luminescent readout, 384-well plate format (AID 1394); format: functional;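 also: MDM2 E3 inhibitors raise luminescence so EC50 is for signal enhancement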
[10] = cytotoxicity in KRAS-transformed pancreatic duct cells, primary screen, cell-based, fluorescence, HTS (AID 431); format: functional; details: Homo sapiens;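 also: cell line used: HPDE-C7K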
[11] = cytotoxicity in HPDE-C7 cells, cell-based, fluorescence, HTS (AID 430); format: functional; details: Homo sapiens
SN12K1 = assay: cells; format: functional; details: Homo sapiens, SN12K1
P388/ADR = assay: cells; format: functional; details: Mus musculus
P388 = assay: cells; format: functional; details: Mus musculus, P388
[12] = target: T4, Small ubiquitin-related modifier 1 (Homo sapiens, UniProt P63165); assay: inhibitors of SUMO1 peptide binding, dose response, biochemical, fluorescence polarization, uHTS hits (AID 624382); format: functional; details: read-out: IC50_Mean
[13] = target: T4, Small ubiquitin-related modifier 1; assay: inhibitors of SUMO1 partner interactions, dose response, biochemical, FRET (AID 624383); format: functional; details: read-out: IC50_Mean
[14] = Luminescence-based cell-based high throughput dose response assay to identify activators of the DAF-12 from the parasite S. stercoralis (ssDAF-12).; format: functional
[15] = target: T5, Oxysterols receptor LXR-beta (Homo sapiens, UniProt P55055); assay: LXR agonists, Gal4 luciferase reporter, dose response, counter-screen for ssDAF-12 agonist project, cell-based, luminescence, HEK293, S. stercoralis campaign (AID 720737); format: functional; details: read-out: IC50 (the source's name)
T5 sequence (P55055 whole entry): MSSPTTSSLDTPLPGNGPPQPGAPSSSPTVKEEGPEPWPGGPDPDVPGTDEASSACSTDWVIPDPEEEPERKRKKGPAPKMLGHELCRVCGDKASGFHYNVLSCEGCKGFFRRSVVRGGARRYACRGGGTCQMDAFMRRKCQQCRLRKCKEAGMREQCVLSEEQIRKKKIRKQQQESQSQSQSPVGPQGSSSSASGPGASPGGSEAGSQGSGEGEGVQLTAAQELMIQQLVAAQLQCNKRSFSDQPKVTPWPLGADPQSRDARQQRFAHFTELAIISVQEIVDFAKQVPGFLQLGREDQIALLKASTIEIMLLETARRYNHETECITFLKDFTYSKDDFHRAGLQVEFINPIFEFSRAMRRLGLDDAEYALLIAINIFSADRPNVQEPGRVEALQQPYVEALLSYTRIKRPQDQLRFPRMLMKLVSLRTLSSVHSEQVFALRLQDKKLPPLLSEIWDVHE

[16] = growth suppression of PTEN-null colon cells, dose response, cell-based, HCT116 PTEN knockout (AID 1047); format: functional;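 also: HCT116 colon tumor cells with PTEN knocked out; cells exposed to compound for 60 hours before readout; potency for loss of cell viability measured by luminescence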
[17] = growth suppression of beta-catenin-knockout colon cells, dose response, cell-based, HCT116, human colon tumor (AID 1045); format: functional;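 also: HCT116 colon tumor cells with beta catenin knocked out; cells exposed to compound for 60 hours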
[18] = target: T6, Long-chain-fatty-acid--AMP ligase FadD28 (Mycobacterium tuberculosis, UniProt P9WQ59); assay: Fluorescence polarization aasay to screen for inhibitors that compete for the binding of FadD28 to a bisubstrate Measured in Biochemical System Using Plate Reader - 2147-01_Inhibitor_Dose_CherryPick_Activity.; format: functional, Mycobacterium tuberculosis H37Rv
T6 sequence (P9WQ59 whole entry): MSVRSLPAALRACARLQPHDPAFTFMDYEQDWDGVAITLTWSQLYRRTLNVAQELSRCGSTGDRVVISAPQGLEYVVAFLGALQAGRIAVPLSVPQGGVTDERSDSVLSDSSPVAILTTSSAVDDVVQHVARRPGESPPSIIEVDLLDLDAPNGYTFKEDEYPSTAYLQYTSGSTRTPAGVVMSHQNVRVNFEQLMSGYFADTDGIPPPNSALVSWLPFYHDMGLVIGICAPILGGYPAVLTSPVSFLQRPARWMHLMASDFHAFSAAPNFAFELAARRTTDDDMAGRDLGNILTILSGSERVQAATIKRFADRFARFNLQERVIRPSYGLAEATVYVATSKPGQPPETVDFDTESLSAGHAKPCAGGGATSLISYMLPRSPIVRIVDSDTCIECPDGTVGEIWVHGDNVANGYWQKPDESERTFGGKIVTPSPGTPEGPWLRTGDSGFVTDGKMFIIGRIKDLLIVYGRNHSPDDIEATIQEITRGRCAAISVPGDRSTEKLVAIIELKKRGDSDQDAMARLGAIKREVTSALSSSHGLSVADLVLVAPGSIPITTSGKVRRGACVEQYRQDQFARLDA

cells [19] = format: functional, cell-based
cells [20] = format: functional, cell-based; remark: listed apart in the source
[21] = IGROV1 ovarian cancer cell cytotoxicity, dose response, PAX8 inhibitor project, plate reader, dry powder samples (AID 743043); format: functional, cell-based; details: IGROV-1
[22] = cytotoxicity in OVCAR8 ovarian cancer cells, dose response, PAX8 project, cell-based, plate reader, dry powder samples (AID 743197); format: functional; details: OVCAR-8
[23] = non-specific cell cytotoxicity, dose response, cytotoxicity control for PAX8 inhibitor project, plate reader, dry powder samples (AID 743021); format: functional, cell-based
[24] = NIH:OVCAR-3 ovarian cancer cell cytotoxicity, dose response, PAX8 inhibitor project, plate reader, dry powder samples (AID 743044); format: functional, cell-based

T4 sequence (P63165 whole entry): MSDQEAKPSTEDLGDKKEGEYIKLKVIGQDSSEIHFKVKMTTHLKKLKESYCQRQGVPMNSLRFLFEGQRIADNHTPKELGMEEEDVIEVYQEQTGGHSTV
Paired box protein Pax-8, sequence (Q06710 whole entry, the tested form may be a part): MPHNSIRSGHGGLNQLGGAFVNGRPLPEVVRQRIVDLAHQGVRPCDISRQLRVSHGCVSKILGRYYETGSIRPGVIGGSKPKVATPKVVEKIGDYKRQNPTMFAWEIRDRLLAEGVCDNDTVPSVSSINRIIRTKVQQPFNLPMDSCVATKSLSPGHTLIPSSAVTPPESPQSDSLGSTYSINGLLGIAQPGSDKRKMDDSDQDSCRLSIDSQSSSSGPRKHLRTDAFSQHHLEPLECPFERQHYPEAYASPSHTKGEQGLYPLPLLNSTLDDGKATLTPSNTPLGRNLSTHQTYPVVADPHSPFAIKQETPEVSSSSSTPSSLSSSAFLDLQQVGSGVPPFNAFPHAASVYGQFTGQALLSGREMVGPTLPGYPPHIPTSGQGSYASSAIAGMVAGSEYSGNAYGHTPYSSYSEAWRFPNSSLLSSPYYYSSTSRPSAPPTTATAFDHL
T1 sequence (P49327 whole entry, the tested form may be a part): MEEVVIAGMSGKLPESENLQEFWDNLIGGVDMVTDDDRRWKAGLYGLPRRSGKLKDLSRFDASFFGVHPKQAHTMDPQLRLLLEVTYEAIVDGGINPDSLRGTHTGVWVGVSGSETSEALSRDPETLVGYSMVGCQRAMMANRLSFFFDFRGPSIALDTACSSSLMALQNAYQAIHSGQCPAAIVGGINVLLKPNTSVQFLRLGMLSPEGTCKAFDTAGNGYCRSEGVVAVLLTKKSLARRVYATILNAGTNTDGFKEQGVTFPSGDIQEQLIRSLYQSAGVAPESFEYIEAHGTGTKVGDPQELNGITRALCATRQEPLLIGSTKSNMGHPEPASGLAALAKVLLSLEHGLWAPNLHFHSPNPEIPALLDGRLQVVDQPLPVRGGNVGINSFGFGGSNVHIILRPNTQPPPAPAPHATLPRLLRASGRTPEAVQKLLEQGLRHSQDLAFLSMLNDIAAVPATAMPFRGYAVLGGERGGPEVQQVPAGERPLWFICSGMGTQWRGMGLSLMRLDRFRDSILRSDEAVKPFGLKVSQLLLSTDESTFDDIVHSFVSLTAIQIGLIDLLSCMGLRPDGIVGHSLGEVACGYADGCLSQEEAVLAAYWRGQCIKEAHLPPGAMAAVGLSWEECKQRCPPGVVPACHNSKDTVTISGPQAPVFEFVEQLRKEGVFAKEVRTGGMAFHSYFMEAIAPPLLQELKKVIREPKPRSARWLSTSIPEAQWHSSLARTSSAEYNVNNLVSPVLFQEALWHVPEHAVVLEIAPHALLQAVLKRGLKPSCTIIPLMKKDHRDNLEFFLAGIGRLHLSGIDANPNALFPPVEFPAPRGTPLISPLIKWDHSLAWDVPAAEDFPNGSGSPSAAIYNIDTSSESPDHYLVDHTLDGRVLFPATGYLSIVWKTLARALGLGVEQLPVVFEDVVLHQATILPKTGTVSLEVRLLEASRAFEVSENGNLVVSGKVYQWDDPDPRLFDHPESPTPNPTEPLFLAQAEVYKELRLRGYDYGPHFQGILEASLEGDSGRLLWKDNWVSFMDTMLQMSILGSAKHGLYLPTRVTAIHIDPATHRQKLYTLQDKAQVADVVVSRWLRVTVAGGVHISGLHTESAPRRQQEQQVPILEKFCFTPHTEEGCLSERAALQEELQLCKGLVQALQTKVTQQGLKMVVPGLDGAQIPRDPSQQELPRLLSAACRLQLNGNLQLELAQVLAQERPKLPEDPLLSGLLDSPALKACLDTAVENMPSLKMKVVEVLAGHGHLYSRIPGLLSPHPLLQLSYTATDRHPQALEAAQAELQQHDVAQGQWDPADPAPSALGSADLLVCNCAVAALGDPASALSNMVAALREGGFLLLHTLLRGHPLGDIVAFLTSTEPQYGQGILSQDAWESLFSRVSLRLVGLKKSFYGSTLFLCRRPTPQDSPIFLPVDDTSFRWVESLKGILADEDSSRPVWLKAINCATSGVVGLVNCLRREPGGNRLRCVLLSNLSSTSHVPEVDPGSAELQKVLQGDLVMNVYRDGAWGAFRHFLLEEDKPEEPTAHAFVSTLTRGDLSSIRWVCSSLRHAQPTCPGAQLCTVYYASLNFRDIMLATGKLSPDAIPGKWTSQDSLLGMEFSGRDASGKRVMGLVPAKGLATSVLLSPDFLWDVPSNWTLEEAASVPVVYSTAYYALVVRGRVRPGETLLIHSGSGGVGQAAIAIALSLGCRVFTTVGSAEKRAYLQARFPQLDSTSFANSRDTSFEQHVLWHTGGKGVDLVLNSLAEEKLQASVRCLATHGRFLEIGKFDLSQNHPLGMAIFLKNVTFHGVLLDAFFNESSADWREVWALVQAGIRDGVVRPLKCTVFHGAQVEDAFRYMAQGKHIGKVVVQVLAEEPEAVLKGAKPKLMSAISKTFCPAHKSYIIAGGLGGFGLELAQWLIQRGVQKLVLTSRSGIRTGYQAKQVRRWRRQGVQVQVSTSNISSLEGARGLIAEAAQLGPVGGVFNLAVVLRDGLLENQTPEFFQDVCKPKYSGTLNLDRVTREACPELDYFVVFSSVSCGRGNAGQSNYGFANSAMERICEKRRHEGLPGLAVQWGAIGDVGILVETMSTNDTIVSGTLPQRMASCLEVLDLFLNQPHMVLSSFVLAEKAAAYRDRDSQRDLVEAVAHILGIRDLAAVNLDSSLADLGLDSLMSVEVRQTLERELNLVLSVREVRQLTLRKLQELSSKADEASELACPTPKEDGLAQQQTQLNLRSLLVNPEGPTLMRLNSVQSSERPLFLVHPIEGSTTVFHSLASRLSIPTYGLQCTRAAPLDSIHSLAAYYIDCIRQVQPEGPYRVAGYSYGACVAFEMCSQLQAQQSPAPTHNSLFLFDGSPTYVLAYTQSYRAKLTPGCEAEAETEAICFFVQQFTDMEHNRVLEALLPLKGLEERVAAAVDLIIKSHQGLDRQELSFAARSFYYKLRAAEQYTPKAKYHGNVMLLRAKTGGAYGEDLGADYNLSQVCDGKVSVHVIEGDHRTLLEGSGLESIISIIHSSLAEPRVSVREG
E3 ubiquitin-protein ligase Mdm2, sequence (Q00987 whole entry): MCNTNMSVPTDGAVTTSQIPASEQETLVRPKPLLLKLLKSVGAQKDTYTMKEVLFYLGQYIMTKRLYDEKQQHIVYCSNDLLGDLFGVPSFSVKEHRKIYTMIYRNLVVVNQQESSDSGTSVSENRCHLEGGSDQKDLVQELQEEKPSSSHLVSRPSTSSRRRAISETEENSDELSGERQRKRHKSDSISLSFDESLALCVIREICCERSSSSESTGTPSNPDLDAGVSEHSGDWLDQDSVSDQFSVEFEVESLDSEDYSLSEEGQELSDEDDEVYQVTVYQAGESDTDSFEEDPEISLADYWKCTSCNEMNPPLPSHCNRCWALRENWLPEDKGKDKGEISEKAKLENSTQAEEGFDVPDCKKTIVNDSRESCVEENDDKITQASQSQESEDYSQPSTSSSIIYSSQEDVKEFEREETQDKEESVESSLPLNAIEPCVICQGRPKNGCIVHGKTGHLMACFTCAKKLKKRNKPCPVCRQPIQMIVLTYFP
Voltage-gated inwardly rectifying potassium channel KCNH2, sequence (Q12809 whole entry, the tested form may be a part): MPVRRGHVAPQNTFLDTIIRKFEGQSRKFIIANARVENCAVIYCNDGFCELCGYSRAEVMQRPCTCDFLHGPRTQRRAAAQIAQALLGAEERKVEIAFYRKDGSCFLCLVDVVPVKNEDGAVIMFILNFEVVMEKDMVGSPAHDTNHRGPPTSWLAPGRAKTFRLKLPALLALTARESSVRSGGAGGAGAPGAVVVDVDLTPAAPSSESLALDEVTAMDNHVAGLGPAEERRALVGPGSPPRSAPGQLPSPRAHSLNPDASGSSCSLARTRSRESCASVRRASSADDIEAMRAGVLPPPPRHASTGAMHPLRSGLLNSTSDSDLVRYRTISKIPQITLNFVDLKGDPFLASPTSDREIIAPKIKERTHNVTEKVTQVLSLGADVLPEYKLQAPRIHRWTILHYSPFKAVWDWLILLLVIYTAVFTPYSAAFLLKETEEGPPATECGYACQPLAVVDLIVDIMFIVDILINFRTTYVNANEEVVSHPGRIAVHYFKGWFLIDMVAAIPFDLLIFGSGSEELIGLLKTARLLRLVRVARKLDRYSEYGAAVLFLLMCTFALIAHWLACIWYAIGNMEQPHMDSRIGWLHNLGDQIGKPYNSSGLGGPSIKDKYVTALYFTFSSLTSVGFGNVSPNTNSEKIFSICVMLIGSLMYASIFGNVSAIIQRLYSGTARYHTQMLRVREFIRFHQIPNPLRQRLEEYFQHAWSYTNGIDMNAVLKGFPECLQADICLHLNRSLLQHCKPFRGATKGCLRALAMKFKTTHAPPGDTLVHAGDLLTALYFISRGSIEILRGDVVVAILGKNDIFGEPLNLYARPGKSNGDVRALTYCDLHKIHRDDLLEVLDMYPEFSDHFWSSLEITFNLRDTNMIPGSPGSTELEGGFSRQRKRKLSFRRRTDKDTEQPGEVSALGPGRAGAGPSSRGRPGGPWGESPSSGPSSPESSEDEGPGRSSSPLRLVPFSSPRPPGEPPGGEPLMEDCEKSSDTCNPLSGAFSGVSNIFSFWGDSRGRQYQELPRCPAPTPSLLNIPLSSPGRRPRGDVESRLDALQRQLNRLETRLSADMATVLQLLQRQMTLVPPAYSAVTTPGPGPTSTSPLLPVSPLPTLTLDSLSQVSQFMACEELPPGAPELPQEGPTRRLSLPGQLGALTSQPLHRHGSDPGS
Delta-type opioid receptor, sequence (P41143 whole entry): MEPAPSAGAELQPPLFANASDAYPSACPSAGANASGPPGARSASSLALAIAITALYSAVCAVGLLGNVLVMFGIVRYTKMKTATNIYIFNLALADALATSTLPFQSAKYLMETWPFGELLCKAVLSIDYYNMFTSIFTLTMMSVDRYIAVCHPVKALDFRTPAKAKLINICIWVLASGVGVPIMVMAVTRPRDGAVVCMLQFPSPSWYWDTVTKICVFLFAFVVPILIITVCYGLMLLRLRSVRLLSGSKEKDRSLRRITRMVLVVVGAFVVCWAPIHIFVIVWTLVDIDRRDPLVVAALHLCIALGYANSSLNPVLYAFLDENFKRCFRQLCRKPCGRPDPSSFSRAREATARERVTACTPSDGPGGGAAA

## CCOC(=O)Cc1csc(NC(=S)NC(=O)c2ccc(Cl)cc2)n1
[1]
  IC50: > 80 µM (inactive)
[2]
  EC50: 0.55 µM (active)

## CSC(=Nc1ccccc1)N=C(SCc1ccccc1)N(C)C
Fatty acid synthase [3]
  IC50: 1.04 µM (active)
[4]
  IC50: 3.95 µM (active)
Mu-type opioid receptor
  EC50: > 92.4 µM (inactive)
Fatty acid synthase [5]
  IC50: 1.37 µM (active)
[6]
  EC50: > 92.4 µM (inactive)
[7]
  EC50: > 92.4 µM (inactive)
Paired box protein Pax-8
  AC50: 4.55 µM (active)
[8]
  IC50: 2.61 µM (active)

## COc1ccc(-c2cn3cccnc3n2)cc1NC(=O)CC(C)C
fMet-Leu-Phe receptor
  Ki: > 66.7 µM (inactive)

## COc1ccc(-c2cc(C(F)(F)F)nc(SCC(=O)NCc3cnn(C)c3C)n2)cc1OC
[9]
  EC50: 16.3 µM (not active)

## OCCN1CCN(c2nc(-c3ccccc3)nc3c2oc2ccccc23)CC1
[10]
  EC50: 10.2 µM (active)
[11]
  EC50: 7.2 µM (active)

## CCCCCCCC/C=C\CCCCCCCC(=O)O [OLEIC ACID]
SN12K1
  GI50: 101 µM (inactive)
[2]
  EC50: 10.4 µM (active)
P388/ADR
  GI50: 78.9 µM (inactive)
P388
  GI50: 115 µM (inactive)

## CCCOc1ccc(C2C(C(=O)c3ccco3)=C(O)C(=O)N2CCCn2ccnc2)cc1 (stereo not drawn)
fMet-Leu-Phe receptor
  Ki: > 66.7 µM (inactive)

## O=C(Nc1cccnc1Cl)c1cc(-c2cccc(O)c2)on1
[12]
  IC50: > 66.6 µM (inactive)
[13]
  IC50: 8.84 µM (active)

## CC(c1nccs1)N(C)C(=O)CCc1nnc(Cc2c[nH]c3ccccc23)o1 (stereo not drawn)
[14]
  IC50: > 67.5 µM (inactive)
[15]
  EC50: > 67.5 µM (inactive)

## CC1=CC(C)(C)Nc2ccc(OC(=O)c3ccco3)cc21
[1]
  IC50: 44.7 µM (inactive)
[16]
  EC50: 7.39 µM (active)
[10]
  EC50: 6.79 µM (active)
[17]
  EC50: 5.59 µM (active)
[11]
  EC50: 7.05 µM (active)

## Cc1ccc(CNC(=O)C(Cc2ccccc2)NS(=O)(=O)c2cccs2)cc1 (stereo not drawn)
[18]
  AC50: 58 µM (active)

## CCCN(CCC)C(S)=Nc1cc(C(=O)OC)ccc1C(=O)OC
Cells [19]
  EC50: > 350 µM (not active)
Cells [20]
  EC50: > 350 µM (not active)
[9]
  EC50: 343 µM (not active)

## C[C@@H]1CCCCO[C@H](CN(C)C(=O)Nc2cccc3ccccc23)[C@H](C)CN([C@@H](C)CO)C(=O)c2cc(NS(=O)(=O)c3ccc(Cl)cc3)ccc2O1
[21]
  AC50: 51.8 µM (active)
[22]
  AC50: 59.6 µM (active)
[23]
  AC50: 55.2 µM (active)
[24]
  AC50: 16.8 µM (active)
Paired box protein Pax-8
  AC50: 5.39 µM (active)

## COC(=O)c1sc2nc(-c3ccccc3)nc(N3CCN(C)CC3)c2c1C
[10]
  EC50: > 20 µM (not active)
[11]
  EC50: > 20 µM (not active)

## C=CCn1c(NC(=O)c2ccccc2)c(C#N)c2nc3ccccc3nc21
fMet-Leu-Phe receptor
  Ki: > 66.7 µM (inactive)

## CC(=O)N1CCN(Cc2nc3cc(NC(=O)NC4CCCCC4)ccc3n2C)CC1
[18]
  AC50: 81 µM (active)

## CCOC(=O)c1ccc(NC(=O)c2c(N)n(Cc3ccccc3)c(=O)[nH]c2=O)cc1
[12]
  IC50: > 66.6 µM (inactive)
[13]
  IC50: 1.43 µM (active)

From ChEMBL document CHEMBL1201862, “PubChem BioAssay data set” (2004)
